Test results from patent publication US11667552B2, “Silver ion biocide delivery system” (priority 2018, dated 2023).

Tests used:
[1] = Silver ion concentration in effluent of water passed through a packed bed of silver material
From the text: In this method, water is passed through a bed of silver chloride which releases silver chloride into the water stream as it flows through the bed.

[2] = Source text: Another method of releasing silver ion in a water stream is the use of metal oxides, carbonates, and salts containing silver. These metal salts may include, but are not limited to, metal oxides, metal halides, or metal salts containing silver, and/or metallic silver, or a combination, mixture or alloy of metals containing silver.
Certain embodiments can be designed with internal design elements to compensate for decreasing volume of material as it is used during operation, without the need to use springs and associated hardware.

Row | Compound | Effluent Conc. Range Packed Bed (ug Ag^+/l) [1] [µg/L] | Max Theoretical Conc (ug salt/L) [2] | theoretical solubility limit [2] | silver ion in effluent from the AgCl bed ([1]; typical, depends on material morphology, temperature, pH)
1 | [Br][Ag] [Silver Bromide] | 5 to 100 |  |  | 
2 | [Cl][Ag] [Silver Chloride] | 200 to 800 | 1,900 ug/l | about 3 mg/l | about 100 μg/l
